Laboratory results: US20050043304A1, “Novel amine derivative having human beta-tryptase inhibitory activity and drugs containing the same” (priority 2001, published 2005)
Like-named read-outs stand apart in the source and are kept apart here. One block for each compound: values may come before it.

What was measured:
β-tryptase = biological target: T1, β-tryptase (Homo sapiens, UniProt Q15661); assay: β-Tryptase Inhibition Test; assay type: biochemical
T1 construct: purchased Promega Corporation
Experimental: Sixty μL of a tris-hydrochloric acid buffer (pH 7.5, containing 200 ng/mL of heparin) was added to 20 μL of β-tryptase (manufactured by Promega Corporation) adjusted to 100 ng/mL with the same buffer. Then, 1 μL of a dimethyl sulfoxide (hereinafter, abbreviated to DMSO) solution as a test compound adjusted to a concentration 100 times as high as the final concentration was added to the mixture. After that, 20 μL of a 0.5 mM synthetic substrate Boc-Phe-Ser-Arg-MCA (manufactured by Peptide Institute, Inc) was added to the mixture, and the whole was reacted at 25° C. for 1 hour, followed by the addition of 100 μL of 20% acetic acid for stopping the reaction. Measured was fluorescence of free MCA generated by laser light with an excitation wavelength of 355 nm (fluorescent wavelength=460 nm, hereinafter abbreviated to F 460 nm).
Δ fluorescence count value (a fluorescence count value after an enzyme reaction—a fluorescence count value before the enzyme reaction) was used for a measure of an enzyme inhibition reaction of a drug, and the enzyme inhibition reaction was evaluated in terms of a suppression rate calculated by the following equation.
A=Δ F 460 nm of a mixture (control) of a substrate containing 1% DMSO and an enzyme
B=Δ F 460 nm of a mixture of a substrate containing a drug dissolved in DMSO and an enzyme
C=Δ F 460 nm of a mixture (blank) containing 1% DMSO and a substrate
Suppression rate (%)=(A−B)×100/(A−C)
The β-tryptase inhibitory activity was measured by the method described above.

FXa = biological target: T2, FXa (Homo sapiens, UniProt P00742); assay: FXa Inhibition Test; assay type: biochemical
T2 construct: FXa (manufactured by Enzyme Research Ltd.); purchased Enzyme Research Ltd
Experimental: 158 μL of a 20 mM tris-hydrochloric acid buffer (pH 7.5, containing 130 mM NaCl, 3.75 mM CaCl2, and 0.1% BSA) was placed on a 96 well microplate, and 20 μL of FXa (manufactured by Enzyme Research Ltd.) adjusted to 0.1 U/mL with the buffer was added to the buffer. Then, 2 μL of a DMSO solution as a test compound adjusted to a concentration 100 times as high as the final concentration was added to the mixture, and the whole was reacted at 37° C. for 3 minutes. After that, 20 μL of an S-2222 substrate solution adjusted to 2 mM with the buffer was added to the mixture, and the whole was reacted at 37° C. for 30 minutes, followed by addition of 100 μL of 20% acetic acid for stopping the reaction. After that, OD 405 nm was measured with a microplate reader.

trypsin = assay: Trypsin Inhibition Test; assay type: biochemical; details: substrate S-2222, 37° C., 20 minutes; read-out: Enzyme Inhibition IC50 Trypsin
Experimental: Added to 158 μL of a 20 mM tris-hydrochloric acid buffer (pH 7.5, containing 130 mM NaCl, 3.75 mM CaCl2, and 0.1% BSA) was 20 μL of a trypsin solution (manufactured by Sigma, a stock solution of […] was adjusted to 100 ng/mL with 0.001 N HCl containing 0.1% BSA). After that, 2 μL of a DMSO solution as a test compound adjusted to a concentration 100 times as high as the final concentration was added to the mixture, and the whole was reacted at 37° C. for 3 minutes. Then, 20 μL of a 2 mM synthetic substrate S-2222 (manufactured by Daiichi Pure Chemicals Co., Ltd.) was added to the mixture, and the whole was reacted at 37° C. for an additional 20 minutes, followed by addition of 100 μL of 20% acetic acid for stopping the reaction. After that, absorbance at 405 nm (hereinafter, abbreviated to OD 405 nm) was measured with a microplate reader.

[1] = substrate Boc-Phe-Ser-Arg-MCA, 25° C., 1 hour, read-out: Tryptase Inhibiting Activity IC50
[2] = substrate S-2222, 37° C., 30 minutes, read-out: Enzyme Inhibition IC50 FXa
[3] = selectivity test, Table 7, read-out: Enzyme Inhibition IC50 Tryptase
[4] = read-out: β-tryptase inhibitory activity in terms of IC50
[5] = Tryptase Inhibiting Activity IC50, substrate Boc-Phe-Ser-Arg-MCA, 25° C., 1 hour
[6] = read-out: FXa inhibiting activity in terms of IC50
[7] = Enzyme Inhibition IC50 Tryptase, selectivity test, Table 7

T2 sequence (P00742 235-488 limits assumed): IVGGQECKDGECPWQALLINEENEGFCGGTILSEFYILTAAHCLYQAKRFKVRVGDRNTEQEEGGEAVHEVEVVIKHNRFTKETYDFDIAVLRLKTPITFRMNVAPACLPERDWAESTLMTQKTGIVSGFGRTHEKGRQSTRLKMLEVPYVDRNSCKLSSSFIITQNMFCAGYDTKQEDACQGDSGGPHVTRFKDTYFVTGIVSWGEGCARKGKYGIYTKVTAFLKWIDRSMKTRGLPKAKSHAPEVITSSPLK
T2 sequence (P00742 41-179 partner limits assumed): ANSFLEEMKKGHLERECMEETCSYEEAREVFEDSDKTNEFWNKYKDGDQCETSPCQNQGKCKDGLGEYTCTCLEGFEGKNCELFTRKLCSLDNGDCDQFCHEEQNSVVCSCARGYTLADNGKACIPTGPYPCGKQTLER
T1 sequence (Q15661 31-275): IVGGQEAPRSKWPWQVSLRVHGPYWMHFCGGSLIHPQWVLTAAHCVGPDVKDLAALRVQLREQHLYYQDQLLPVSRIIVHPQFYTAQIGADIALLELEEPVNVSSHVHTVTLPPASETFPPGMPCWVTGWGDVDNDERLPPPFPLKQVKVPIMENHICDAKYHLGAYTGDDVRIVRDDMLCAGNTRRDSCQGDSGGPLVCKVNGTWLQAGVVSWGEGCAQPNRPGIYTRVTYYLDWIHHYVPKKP

IC50 (β-tryptase; [1]): 32 nM
SMILES: CN(CCCc1ccc(CN)cc1)CCNC(=O)c1cc2cc(C(F)(F)F)ccc2[nH]1 [Compound 63]

IC50 (FXa; [2]): > 100000 nM
IC50 (β-tryptase; [3]): 5 nM
IC50 (β-tryptase; [1]): 5 nM
IC50 (trypsin): > 100000 nM
SMILES: Cc1ccc2[nH]c(C(=O)NCCN(C)CCCc3ccc(CN)cc3)cc2c1 [Compound 55]

IC50 (β-tryptase; [1]): 5 nM
SMILES: CN(CCCc1ccc(CN)cc1)CCNC(=O)c1ccc2cc[nH]c2c1 [Compound 53]

IC50 (β-tryptase; [4]): ≤ 10 nM
SMILES: CN(CCCc1ccc(CN)cc1)CCNC(=O)c1ccc2c(ccn2C)c1 [compound 73]

IC50 (β-tryptase; [4]): ≤ 10 nM
SMILES: CN(CCCc1ccc(CN)cc1)CCNC(=O)c1ccc2cc[nH]c2c1 [compound 53]

IC50 (β-tryptase; [1]): 440 nM
SMILES: NCc1ccc(CCCN(CCNS(=O)(=O)c2ccc3ccccc3c2)CCC(=O)O)cc1 [Compound 33]

melting point: 199 to 199.7 °C
IC50 (β-tryptase; [5]): 200 nM
SMILES: NCc1ccc(CCCNCCNS(=O)(=O)c2ccc3c(c2)CCC3)cc1 [Compound 7]

IC50 (β-tryptase; [1]): 310 nM
SMILES: CN(CCCc1ccc(CN)cc1)CCNCc1cc2ccccc2s1 [Compound 91]

IC50 (β-tryptase; [1]): 20 nM
SMILES: CN(CCCc1ccc(CN)cc1)CCNC(=O)c1ccc2ncsc2c1 [Compound 78]

IC50 (β-tryptase; [1]): 140 nM
SMILES: CCN(CCCc1ccc(CN)cc1)CCNS(=O)(=O)c1ccc2ccccc2c1 [Compound 18]

melting point: 190.2 to 191.4 °C
IC50 (β-tryptase; [1]): 1 nM
SMILES: CN(CCCc1ccc(CN)cc1)CCN(C)C(=O)c1cc2cc(Cl)ccc2[nH]1 [Compound 87]

IC50 (FXa; [2]): > 100000 nM
IC50 (β-tryptase; [3]): 8 nM
IC50 (trypsin): > 100000 nM
SMILES: CC(=O)c1ccc2[nH]c(C(=O)NCCN(C)CCCc3ccc(CN)cc3)cc2c1 [Compound 70]

IC50 (FXa; [2]): > 100000 nM
melting point: 166.4 to 170 °C
IC50 (β-tryptase; [3]): 6 nM
IC50 (trypsin): > 100000 nM
SMILES: CN(CCCc1ccc(CN)cc1)CCNC(=O)c1cc2cc(Cl)ccc2[nH]1 [Compound 58]

melting point: 264.2 to 265.4 °C
IC50 (β-tryptase; [5]): 210 nM
SMILES: NCc1ccc(CCCNCCNS(=O)(=O)c2ccc3sccc3c2)cc1 [Compound 5]

IC50 (FXa; [2]): > 100000 nM
IC50 (β-tryptase; [3]): 6 nM
IC50 (β-tryptase; [1]): 6 nM
IC50 (trypsin): > 100000 nM
SMILES: CN(CCCc1ccc(CN)cc1)CCNC(=O)c1cc2cc(Br)ccc2[nH]1 [Compound 61]

melting point: 233.9 to 234.5 °C
IC50 (β-tryptase; [5]): 190 nM
SMILES: NCc1ccc(CCCNCCNS(=O)(=O)c2ccc3c(c2)CNCC3)cc1 [Compound 9]

IC50 (β-tryptase; [1]): 55 nM
SMILES: CN(CCCc1ccc(CN)cc1)CCNC(=O)c1cc2cc(C(=O)O)ccc2[nH]1 [Compound 69]

IC50 (FXa; [6]): ≥ 100000 nM
IC50 (β-tryptase; [4]): ≤ 10 nM
SMILES: CN(CCCc1ccc(CN)cc1)CCNC(=O)c1cc2cc(Br)ccc2[nH]1 [compound 61]

IC50 (FXa; [2]): > 100000 nM
melting point: 264.3 to 265.6 °C
IC50 (trypsin): > 100000 nM
SMILES: NCc1ccc(CCCNCCNS(=O)(=O)c2ccc3ccccc3c2Cl)cc1 [Compound 4]

SMILES: CN(CCCc1ccc(CN)cc1)CCNS(=O)(=O)c1ccc2ccccc2c1 [Compound 17]
IC50 (FXa; [2]): > 30000 nM
melting point: 91.6 to 92 °C
IC50 (β-tryptase): 120 nM
IC50 (β-tryptase; [7]): 120 nM
IC50 (trypsin): > 30000 nM

melting point: 221.5 to 222.7 °C
IC50 (β-tryptase; [1]): 15 nM
SMILES: CN(CCCc1ccc(CN)cc1)CCNS(=O)(=O)c1ccc2ccccc2c1Cl [Compound 20]

IC50 (β-tryptase; [1]): 15 nM
SMILES: CN(CCCc1ccc(CN)cc1)CCNC(=O)c1sc2ccccc2c1Cl [Compound 49]

IC50 (FXa; [2]): > 100000 nM
IC50 (β-tryptase; [3]): 15 nM
IC50 (trypsin): > 100000 nM
SMILES: CN(CCCc1ccc(CN)cc1)CCNC(=O)c1cc2cc(OCc3ccccc3)ccc2[nH]1 [Compound 72]

melting point: 269.5 to 271.2 °C
IC50 (β-tryptase; [1]): 190 nM
SMILES: NCc1ccc(CCCNCCNC(=O)c2ccc3ncccc3c2)cc1 [Compound 13]

IC50 (β-tryptase; [1]): 20 nM
SMILES: CN(CCCc1ccc(CN)cc1)CCNC(=O)c1cc2ccccc2o1 [Compound 45]

IC50 (FXa; [2]): > 100000 nM
IC50 (β-tryptase; [3]): 8 nM
IC50 (trypsin): > 100000 nM
SMILES: CN(CCCc1ccc(CN)cc1)CCNC(=O)c1ccc2cc(Br)ccc2c1 [Compound 41]

IC50 (FXa; [6]): ≥ 100000 nM
IC50 (β-tryptase; [4]): ≤ 10 nM
SMILES: Cc1ccc2[nH]c(C(=O)NCCN(C)CCCc3ccc(CN)cc3)cc2c1 [compound 55]

IC50 (β-tryptase; [1]): 200 nM
SMILES: CN(CCCc1ccc(CN)s1)CCNC(=O)c1cc2ccccc2s1 [Compound 90]

IC50 (FXa; [6]): ≥ 100000 nM
IC50 (β-tryptase; [4]): ≤ 10 nM
SMILES: CC(=O)c1ccc2[nH]c(C(=O)NCCN(C)CCCc3ccc(CN)cc3)cc2c1 [compound 70]

IC50 (FXa; [6]): ≥ 100000 nM
IC50 (β-tryptase; [4]): ≤ 10 nM
SMILES: CN(CCCc1ccc(CN)cc1)CCNC(=O)c1cc2cc(Cl)ccc2[nH]1 [compound 58]

IC50 (FXa; [6]): ≥ 100000 nM
SMILES: NCc1ccc(CCCNCCNS(=O)(=O)c2ccc3ccccc3c2Cl)cc1 [compound 4]

IC50 (β-tryptase; [1]): 14 nM
SMILES: CN(CCCc1ccc(CN)cc1)CCNC(=O)c1cc2cc(F)ccc2[nH]1 [Compound 62]

IC50 (β-tryptase; [1]): 100 nM
SMILES: CN(CCCc1ccc(CN)cc1)CCNC(=O)c1c[nH]c2ccccc12 [Compound 51]

IC50 (FXa; [6]): ≥ 100000 nM
IC50 (β-tryptase; [4]): ≤ 10 nM
SMILES: CN(CCCc1ccc(CN)cc1)CCNC(=O)c1ccc2cc(Br)ccc2c1 [compound 41]

IC50 (β-tryptase; [1]): 64 nM
SMILES: CN(CCCc1ccc(CN)cc1)CCNC(=O)c1ccc2occc2c1 [Compound 46]

IC50 (β-tryptase; [1]): 1 nM
SMILES: CN(CCCc1ccc(CN)cc1)CCNC(=O)c1ccc2c(ccn2C)c1 [Compound 73]

SMILES: NCc1ccc(CCCNCCNS(=O)(=O)c2ccc3ccccc3c2)cc1 [Compound 1]
IC50 (FXa; [2]): > 100000 nM
IC50 (β-tryptase): 86 nM
IC50 (β-tryptase; [7]): 86 nM
IC50 (trypsin): > 100000 nM

IC50 (β-tryptase; [1]): 73 nM
SMILES: CN(CCCc1ccc(CN)cc1)CCNC(=O)c1nc2ccccc2s1 [Compound 77]

IC50 (β-tryptase; [4]): ≤ 10 nM
SMILES: CN(CCCc1ccc(CN)cc1)CCN(C)C(=O)c1cc2cc(Cl)ccc2[nH]1 [compound 87]

IC50 (β-tryptase; [1]): 140 nM
SMILES: CN(CCCc1ccc(CN)nc1)CCNC(=O)c1ccc2[nH]ccc2c1 [Compound 89]

IC50 (FXa; [2]): > 30000 nM
melting point: 69.7 to 72.2 °C
IC50 (β-tryptase; [3]): 150 nM
IC50 (β-tryptase; [1]): 150 nM
IC50 (trypsin): > 30000 nM
SMILES: NCc1ccc(CCCNCCNC(=O)c2ccc3ccccc3c2)cc1 [Compound 11]
